The test system of experiment [1] is influenza A/Lyon/969/09 (H1N1)pdm09 virus. Format: cell-based. The conditions noted are these: basolateral medium replaced with fresh medium without drugs.
For experiment [2], the system named is A/Lyon/969/2009 H275Y (H1N1). Format: cell-based, influenza virus.

As for `COc1ccc([C@@H]2Sc3ccccc3N(CCN(C)C)C(=O)[C@@H]2OC(C)=O)cc1` [Diltiazem], in experiment [1], the “Reversibility of inhibitory and protective properties” value is reported as “progressively reversible”. In experiment [2], this compound registered a Viral titer of 2.8 log TCID50/ml.
Consider `CCNCC(O)c1cccc(O)c1` (stereo not drawn) [Etilefrine], for which, in experiment [2], the Viral titer was 2.8 log TCID50/ml.

(Values after paper PMC6361841, “Repurposing of Drugs as Novel Influenza Inhibitors From Clinical Gene Expression Infection Signatures” (Frontiers in Immunology, 2019).)
